Patent publication US12667574B2, “Paraxanthine-based bioactive composition and method of use thereof” (PX ING, LLC, priority 2021, dated 2026)

Key:
male Swiss Albino mice = test: Treadmill endurance test (first Example 4, L-Theanine); type: in vivo; conditions: oral once daily 28 days, HED 50 mg paraxanthine, 25 mg L-Theanine
Protocol: (§1) Distilled water was provided ad libitum. […] Ltd (Bangalore, India).
(§2) The following HED were used in this study: 50 mg paraxanthine, (ENFINITY™ Ingenious Ingredients, L.P Lewisville, TX, USA; mouse dose: 10.275 mg/kg bw/day); 25 mg L-Theanine (mouse dose: 5.137 mg/kg bw), and 50 mg paraxanthine plus 25 mg L-Theanine. 0.5% Carboxy Methyl Cellulose sodium was used as vehicle and the test item formulations were prepared daily.
During the treatment period, exercise training was completed using a motorized treadmill (Exer 3/6, Columbus Instruments international, OH, USA) at a moderate intensity of 20 cm/sec as maximal running speed, an incline of ten degrees and a shock intensity of 0.2 mA, for ten minutes. The speed of the treadmill was manually adjusted by increasing the belt speed by 5 cm/sec every two minutes throughout the total duration of ten minutes. All animals were adapted to this procedure daily 60 minutes after dosing for five days in a week during the treatment period. 1.3. Treadmill Endurance Test
Muscle endurance was accomplished on a motorized treadmill at a low to moderate intensity of 5-50 cm/sec as maximal running speed, an incline of ten degrees and a shock intensity of 0.2 mA, with the belt speed being increased by 5 cm/sec every two minutes until it reaches 50 cm/sec. Animals were subjected to the treadmill test until exhaustion.

[1] = test system: male Swiss Albino Wistar rats; test: Walter Morris Maze test (second Example 4, L-Theanine); type: in vivo; conditions: oral 14 days
Protocol: as §1
as §2, with “(ENFINITY™,” for “(ENFINITY™”, “rat” for “mouse”, “5.141” for “10.275”, “(rat” for “(mouse”, “2.570” for “5.137”, “daily. […] The last dose on day 14 was given 1 hour prior to testing.” for “daily.”
The Walter Morris Maze test consisted of a circular pool in a room with geometric shapes on the wall serving as spatial cues. The pool, which is 70 cm in diameter and painted with black color, filled with 13 cm depth of 25±1° C. water. A platform (6 cm diameter) was placed into one quadrant of the pool and submerged 1 cm below the water surface. For the training, all rats were trained to locate the submerged platform in a constant location. The training day consisted of four trials. During training, a rat started at one of four starting points and allowed to swim until it located the platform or until 60 seconds had elapsed. The rat was allowed to remain on the platform for 15 seconds before being dried off and later was transferred to a holding cage. […] The animals were continuously trained 4 times at 4 starting points continued daily for 4 days, the main trial was conducted on the 15th & 16th day and the latency of escaping onto the platform was recorded.

dopamine (dopa) [2] = test: Dopamine concentration (second Example 4); type: in vivo, rats; conditions: oral 14 days
Protocol: as §1
as §2, with “(ENFINITY™,” for “(ENFINITY™”, “rat” for “mouse”, “5.141” for “10.275”, “(rat” for “(mouse”, “2.570” for “5.137”, “daily. […] The last dose on day 14 was given 1 hour prior to testing.” for “daily.”

[3] = test system: brain derived neuro factor, BDNF; test: BDNF level, neuroplasticity (second Example 4); type: in vivo, rats; conditions: oral 14 days
Protocol: as §1
as §2, with “(ENFINITY™,” for “(ENFINITY™”, “rat” for “mouse”, “5.141” for “10.275”, “(rat” for “(mouse”, “2.570” for “5.137”, “daily. […] The last dose on day 14 was given 1 hour prior to testing.” for “daily.”

glutathione (GSH) [4] = test: Glutathione level (second Example 4); type: in vivo, rats; conditions: oral 14 days
Protocol: as §1
as §2, with “(ENFINITY™,” for “(ENFINITY™”, “rat” for “mouse”, “5.141” for “10.275”, “(rat” for “(mouse”, “2.570” for “5.137”, “daily. […] The last dose on day 14 was given 1 hour prior to testing.” for “daily.”

acetylcholine (Ach) [5] = test: Acetylcholine concentration (second Example 4); type: in vivo, rats; conditions: oral 14 days
Protocol: as §1
as §2, with “(ENFINITY™,” for “(ENFINITY™”, “rat” for “mouse”, “5.141” for “10.275”, “(rat” for “(mouse”, “2.570” for “5.137”, “daily. […] The last dose on day 14 was given 1 hour prior to testing.” for “daily.”

[6] = test system: brain derived neuro factor, BDNF; test: BDNF level, neuroplasticity (Example 3); type: in vivo, rats; conditions: oral 14 days
Protocol: as §1
(§3) 0.5% Carboxy Methyl Cellulose sodium was used as vehicle and the test item formulations were prepared daily. […] The last dose on day 14 was given 1 hour prior to testing.

glutathione (GSH) [7] = test: Glutathione level (Example 3); type: in vivo, rats; conditions: oral 14 days
Protocol: as §1, §3

dopamine (dopa) [8] = test: Dopamine concentration (Example 3); type: in vivo, rats; conditions: oral 14 days
Protocol: as §1, §3

[9] = test system: male Swiss Albino Wistar rats; test: Walter Morris Maze test (Example 3); type: in vivo; conditions: oral 14 days
Protocol: Distilled water was provided ad libitum. […] Ltd (Bangalore, India). […] The last dose on day 14 was given 1 hour prior to testing. The Walter Morris Maze test consisted of a circular pool in a room with geometric shapes on the wall serving as spatial cues. The pool, which is 70 cm in diameter and painted with black color, filled with 13 cm depth of 25±1° C. water. A platform (6 cm diameter) was placed into one quadrant of the pool and submerged 1 cm below the water surface. For the training, all rats were trained to locate the submerged platform in constant location. The training day consisted of four trials. […] The rat was allowed to remain on the platform for 15 seconds before being dried off and later was transferred to a holding cage.

acetylcholine (Ach) [10] = test: Acetylcholine concentration (Example 3); type: in vivo, rats; conditions: oral 14 days
Protocol: as §1, §3

In the case of CCNC(=O)CC[C@H](N)C(=O)O [L-Theanine, N5-ethyl-L-glutamine, reference compound], the “distance travelled during treadmill exercise” value (male Swiss Albino mice) is reported as 295.17±6.11 m, the escape latency ([1]; old rats (16-month-old)) is reported as 44.67 ± 2.16 s and the escape latency ([1]; young rats (8-week-old)) is reported as 38.33 ± 2.07 s. The “dopamine (dopa) concentration” value (dopamine (dopa) [2]; old rats) was 473.03 ± 6.05 ng/L, the “dopamine (dopa) concentration” value (dopamine (dopa) [2]; young rats) was 528.18 ± 4.09 ng/L and the BDNF ([3]; old rats) was 789.1 ± 2.03 pg/mL. For the same compound, the BDNF ([3]; young rats) was 866 ± 8.66 pg/mL, the “glutathione (GSH) level” value (glutathione (GSH) [4]; old rats) was 23.87 ± 0.45 µg/mL and the “glutathione (GSH) level” value (glutathione (GSH) [4]; young rats) was 31.72 ± 0.53 µg/mL. The “acetylcholine (Ach) concentration” value (acetylcholine (Ach) [5]; old rats) was 55.89±1.05 U/mL and the “acetylcholine (Ach) concentration” value (acetylcholine (Ach) [5]; young rats) was 62.83±0.91 U/mL.

For C[N+](C)(C)CCOP(=O)([O-])OC[C@H](O)CO [alpha-GPC, L-Alpha glycerylphosphorylcholine, reference compound], the BDNF ([6]; old rats) was 881.70 ± 10.41 µg/mL, the BDNF ([6]; young rats) was 881.70 ± 10.41 µg/mL and the “glutathione (GSH) level” value (glutathione (GSH) [7]; old rats) was 24.72 ± 0.48 µg/mL. For the same compound, the “glutathione (GSH) level” value (glutathione (GSH) [7]; young rats) was 31.72 ± 0.53 µg/mL, the “dopamine (dopa) concentration” value (dopamine (dopa) [8]; old rats) was 506.35 ± 2.82 ng/L and the “dopamine (dopa) concentration” value (dopamine (dopa) [8]; young rats) was 563.55 ± 7.98 ng/L. The escape latency ([9]; old rats (16-month-old)) was 39.83 ± 0.98 s, the escape latency ([9]; young rats (8-week-old)) was 34.83 ± 1.33 s and the “acetylcholine (Ach) concentration” value (acetylcholine (Ach) [10]; old rats) was 56.89±1.76 U/mL. The “acetylcholine (Ach) concentration” value (acetylcholine (Ach) [10]; young rats) was 65.89±1.64 U/mL.
